Where two headings read alike, the source gives them in different places.
Experiments:
11β-HSD1 Dehydrogenase [1] = biological target: T1, 11β-HSD1 Dehydrogenase (Rattus norvegicus, UniProt P16232); assay: 11β-HSD1 dehydrogenase assay in rat Leydig cell homogenates; type: biochemical; set-up: Freshly prepared rat Leydig cell homogenates were chosen since they provide a rich and reliable source of both 11β-HSD1 dehydrogenase and reductase; from tissue; host or cells: rat testicular Leydig cells, homogenate;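 further: tritiated corticosterone conversion by 11β-HSD1 dehydrogenase in Leydig homogenates with 3 mM NADP at pH 8.4, 37 °C for 10 min, products resolved by HPLC, inhibition relative to uninhibited enzyme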
Description: (§1) Each enzyme reaction (described below) was stopped by adding 750 μL MeOH. After centrifugation, an aliquot of supernatant was analyzed by HPLC using a DuPont Zorbax C8 column.
(§2) 11β-HSD1 dehydrogenase was assayed by incubating homogenates (13,000 cells equivalent) with 600 nM [^3H]-B (0.5 μCi) in the presence of 3 mM NADP, 50 mM Tris-HCl; pH 8.4 at 37° C. for 10 minutes in a total volume of 250 μL. 11β-HSD1 reductase was assayed by incubating homogenates (52,000 cells equivalent) with 600 nM [^3H]-11-dehydro-corticosterone in presence of 3 mM NADPH, 50 mM Tris-HCl; pH 7.4 at 37° C. for 20 minutes in a total volume of 250 μL.
(§3) Each concentration was tested in triplicate and the dose response curve, showing percentage inhibition versus log concentration of steroid was plotted. The data fitted a log-linear straight line.

11β-HSD2 = biological target: T2, 11β-HSD2 (Ovis aries, UniProt P50168); assay: 11β-HSD2 enzyme activity in sheep kidney microsomes; type: biochemical
T2 construct: incubating sheep kidney microsomal fraction (6.5 μg protein) with 50 nM corticosterone; from tissue; host or cells: sheep kidney microsomal fraction
T2 sequence (P50168 1-427): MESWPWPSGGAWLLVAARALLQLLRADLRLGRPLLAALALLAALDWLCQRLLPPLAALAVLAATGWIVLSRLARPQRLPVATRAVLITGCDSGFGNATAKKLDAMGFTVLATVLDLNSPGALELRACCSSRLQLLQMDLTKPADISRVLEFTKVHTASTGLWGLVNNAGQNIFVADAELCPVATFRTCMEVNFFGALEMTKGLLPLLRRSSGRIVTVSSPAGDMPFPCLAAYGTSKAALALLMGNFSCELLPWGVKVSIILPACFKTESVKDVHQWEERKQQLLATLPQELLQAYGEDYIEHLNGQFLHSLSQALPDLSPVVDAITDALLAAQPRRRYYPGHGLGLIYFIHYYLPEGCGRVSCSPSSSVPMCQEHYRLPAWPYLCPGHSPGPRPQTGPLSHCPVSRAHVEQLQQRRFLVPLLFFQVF
Description: The enzymatic reaction was termninated by addition of methanol and synthesis of 11-dehydro-corticosterone was quantitated by HPLC as described above.

11β-HSD1 Dehydrogenase [2] = biological target: T1, 11β-HSD1 Dehydrogenase; assay: Table 1: inhibition of 11β-HSD1 dehydrogenase; type: biochemical; details: Table 1, inhibition in words
11β-HSD1 Reductase [3] = biological target: T3, 11β-HSD1 Reductase (Rattus norvegicus, UniProt P16232); assay: 11β-HSD1 reductase assay in rat Leydig cell homogenates;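 further: rat Leydig cell homogenate incubated 20 min at 37 °C, pH 7.4, with tritiated 11-dehydro-corticosterone and 3 mM NADPH, product measured by HPLC, inhibition from triplicate dose–response curves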
Description: as §1, §2, §3

11β-HSD1 Reductase [4] = biological target: T3, 11β-HSD1 Reductase; assay: Table 1: inhibition of 11β-HSD1 reductase; type: biochemical; details: Table 1, inhibition in words
11β-HSD2 Dehydrogenase = biological target: T4, 11β-HSD2 Dehydrogenase (Ovis aries, UniProt P50168); assay: Table 1: inhibition of 11β-HSD2 dehydrogenase; type: biochemical; details: Table 1, inhibition in words
T4 sequence (P50168 1-427): T2 sequence (P50168 1-427)

[5] = rat Leydig cell homogenates, 600 nM corticosterone, NADP, corticosteroid series, read-out: Leydig Cell 11β-HSD1 Dehydrogenase [S]= 600 nM
[6] = rat Leydig cell homogenates, 600 nM corticosterone, NADP, corticosteroid series
[7] = 11β-HSD2, sheep kidney microsomes, 50 nM corticosterone, NAD+, aldosterone, cortisol, corticosterone series, read-out: Dehydrogenase [S] = 50 nM
[8] = rat Leydig cell homogenates, 600 nM 11-dehydro-corticosterone, NADPH, corticosteroid series
[9] = 11β-HSD2, sheep kidney microsomes, 50 nM corticosterone, NAD+, aldosterone, cortisol, corticosterone series
[10] = read-out: Leydig Cell 11β-HSD1 Reductase [S]= 600 nM, rat Leydig cell homogenates, 600 nM 11-dehydro-corticosterone, NADPH, corticosteroid series

T3 sequence (P16232 whole entry): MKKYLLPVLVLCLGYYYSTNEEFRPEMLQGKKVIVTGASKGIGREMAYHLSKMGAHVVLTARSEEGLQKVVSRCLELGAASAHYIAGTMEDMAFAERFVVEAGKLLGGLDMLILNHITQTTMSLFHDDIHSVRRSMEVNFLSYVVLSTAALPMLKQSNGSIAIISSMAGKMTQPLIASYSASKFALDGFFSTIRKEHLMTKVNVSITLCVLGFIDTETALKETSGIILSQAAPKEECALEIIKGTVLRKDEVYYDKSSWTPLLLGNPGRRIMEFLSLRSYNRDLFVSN
T1 sequence (P16232 whole entry): as above

How did the IC50 (11β-HSD1 Dehydrogenase [1]) turn out when `C[C@]12CCC(=O)C=C1CC[C@@H]1[C@H]2C(=O)C[C@]2(C)C(=O)CC[C@H]12` (stereo in doubt) [11 -Keto-Androstenedione, 4-Androsten-11,3,17-trione] was run?
Its IC50 is greater than 100 µM.

And the “Leydig Cell 11β-HSDl Dehydrogenase [S] = 600 nM” value (11β-HSD1 Dehydrogenase [1]; rat Leydig cell homogenates, 600 nM corticosterone, progesterone and androgen derivatives)?
Its value is “inactive”.

And the IC50 (11β-HSD2)?
The IC50 was greater than 10 µM.

And the “Sheep kidney 11β-HSD2 [S] = 50 nM” value (11β-HSD2; sheep kidney microsomes, corticosterone substrate, progesterone and androgen derivatives)?
Its value is “inactive”.

What about the “11β-HSD1 Dehydrogenase” value (11β-HSD1 Dehydrogenase [2]) of the same molecule?
Its value is “No Inhibition”.

What about the IC50 (11β-HSD1 Reductase [3]) of the same molecule?
Its IC50 is 21 µM.

And the “11β-HSD1 Reductase” value (11β-HSD1 Reductase [4])?
Its value is “Selective Inhibitor”.

What about the “11β-HSD2 Dehydrogenase” value (11β-HSD2 Dehydrogenase) of the same molecule?
The value was “No Inhibition”.

Which results are given for `C[C@]12CC[C@@H](O)C[C@@H]1CC[C@@H]1[C@@H]2C(=O)C[C@@]2(C)[C@H]1CC[C@]2(O)C(=O)CO` [3α,5α-TH- Cortisone, 5α-Pregnan-3α,17α,21-triol-11,20-dione]?
IC50 (11β-HSD1 Dehydrogenase [1]; [5]): > 100 µM; IC50 (11β-HSD1 Reductase [3]): 4.3 µM

What does the source list for `C[C@]12CC[C@@H](O)C[C@@H]1CC[C@@H]1[C@@H]2[C@@H](O)C[C@@]2(C)[C@H]1CC[C@]2(O)C(=O)CO` [3α,5α-TH-Cortisol, 5α-Pregnan-3α,11β,17α,21-tetrol-20-one]?
Leydig Cell 11β-HSD1 Dehydrogenase [S]= 600 nM (11β-HSD1 Dehydrogenase [1]; [6]): inactive; IC50 (11β-HSD1 Dehydrogenase [1]; [5]): 14 µM; IC50 (11β-HSD2; [7]): 8 µM; IC50 (11β-HSD1 Reductase [3]): > 100 µM; Leydig Cell 11β-HSD1 Reductase [S]= 600 nM (11β-HSD1 Reductase [3]; [8]): inactive

What does the source list for `C[C@]12CC[C@@H](O)C[C@H]1CC[C@@H]1[C@H]2C(=O)C[C@]2(C)[C@@H](O)CC[C@@H]12` [3α,5α-reduced-11-keto-testosterone]?
11β-HSD1 Dehydrogenase (11β-HSD1 Dehydrogenase [2]): No Inhibition; 11β-HSD1 Reductase (11β-HSD1 Reductase [4]): Selective Inhibitor

With `C[C@]12CC[C@@H](O)C[C@H]1CC[C@H]1[C@@H]3CC[C@H](C(=O)CO)[C@@]3(C)CC(=O)[C@@H]12` [3α,5β-TH- 11 -dehydro-corticosterone, 5β-Pregnan-3α,21-diol-11,20-dione] as the molecule, how does the “Leydig Cell 11β-HSD1 Dehydrogenase [S]= 600 nM” value (11β-HSD1 Dehydrogenase [1]; [6]) read?
Its value is “inactive”.

And the IC50 (11β-HSD1 Dehydrogenase [1]; [5])?
The IC50 was greater than 100 µM.

And the “Dehydrogenase [S] = 50 nM” value (11β-HSD2; [9])?
The value was “inactive”.

What about the IC50 (11β-HSD2; [7]) of the same molecule?
Its IC50 is greater than 10 µM.

And the “Leydig Cell 11β-HSD1 Reductase [S]= 600 nM” value (11β-HSD1 Reductase [3]; [8])?
The value was “inactive”.

And the IC50 (11β-HSD1 Reductase [3]; [10])?
Its IC50 is greater than 100 µM.

With `C[C@]12CC[C@@H](O)C[C@H]1CC[C@@H]1[C@@H]2[C@@H](O)C[C@]2(C=O)[C@@H](C(=O)CO)CC[C@@H]12` [3α,5β-TH-Aldosterone, 5β-Pregnan-3α,11β,21-triol-20-one-18-al] as the molecule, how does the “Leydig Cell 11β-HSD1 Dehydrogenase [S]= 600 nM” value (11β-HSD1 Dehydrogenase [1]; [6]) read?
Its value is “inactive”.

And the IC50 (11β-HSD1 Dehydrogenase [1]; [5])?
Its IC50 is greater than 100 µM.

What about the “Dehydrogenase [S] = 50 nM” value (11β-HSD2; [9]) of the same molecule?
The value was “inactive”.

What about the IC50 (11β-HSD2; [7]) of the same molecule?
Its IC50 is greater than 10 µM.

What about the “Leydig Cell 11β-HSD1 Reductase [S]= 600 nM” value (11β-HSD1 Reductase [3]; [8]) of the same molecule?
The value was “inactive”.

And the IC50 (11β-HSD1 Reductase [3]; [10])?
Its IC50 is greater than 100 µM.

With `C[C@]12CC[C@@H](O)C[C@H]1CC[C@@H]1[C@@H]2[C@@H](O)C[C@]2(C)[C@@H](C(=O)CO)CC[C@@H]12` [3α,5β-TH-Corticosterone, 5β-Pregnan-3α,11β,21-triol-20-one] as the molecule, how does the “Leydig Cell 11β-HSD1 Dehydrogenase [S]= 600 nM” value (11β-HSD1 Dehydrogenase [1]; [6]) read?
The value was “inactive”.

And the IC50 (11β-HSD1 Dehydrogenase [1]; [5])?
Its IC50 is greater than 100 µM.

And the “Dehydrogenase [S] = 50 nM” value (11β-HSD2; [9])?
The value was “inactive”.

And the IC50 (11β-HSD2; [7])?
The IC50 was greater than 10 µM.

And the IC50 (11β-HSD1 Reductase [3])?
The IC50 was greater than 100 µM.

What about the “Leydig Cell 11β-HSD1 Reductase [S]= 600 nM” value (11β-HSD1 Reductase [3]; [8]) of the same molecule?
Its value is “inactive”.

Which results are given for `C[C@]12CC[C@@H](O)C[C@H]1CC[C@@H]1[C@@H]2[C@@H](O)C[C@@]2(C)[C@H]1CC[C@]2(O)C(=O)CO` [3α,5β-TH-Cortisol, 5β-Pregnan-3α,11β,17α,21-tetrol-20-one]?
Leydig Cell 11β-HSD1 Dehydrogenase [S]= 600 nM (11β-HSD1 Dehydrogenase [1]; [6]): inactive; IC50 (11β-HSD1 Dehydrogenase [1]; [5]): > 100 µM; Dehydrogenase [S] = 50 nM (11β-HSD2; [9]): inactive; IC50 (11β-HSD2; [7]): > 10 µM; IC50 (11β-HSD1 Reductase [3]): > 100 µM; Leydig Cell 11β-HSD1 Reductase [S]= 600 nM (11β-HSD1 Reductase [3]; [8]): inactive

`C[C@]12CC[C@@H](O)C[C@H]1CC[C@@H]1[C@@H]2C(=O)C[C@@]2(C)[C@H]1CC[C@]2(O)C(=O)CO` [3α,5β-TH-Cortisone, 5β-Pregnan-3α, 17α,21-triol-11,20-dione] was tested. Which IC50 (11β-HSD1 Dehydrogenase [1]; [5]) did it give?
The IC50 was greater than 100 µM.

And the IC50 (11β-HSD1 Reductase [3])?
The IC50 was 60 µM.

Which “11β-HSD1 Dehydrogenase” value (11β-HSD1 Dehydrogenase [2]) does the source give for `C[C@]12CC[C@@H](O)C[C@H]1CC[C@@H]1[C@H]2[C@@H](O)C[C@]2(C)C(=O)CC[C@H]12` [3α,5β-reduced- 11β-OH- androstenedione] here?
Its value is “Moderate Inhibitor”.

And the “11β-HSD1 Reductase” value (11β-HSD1 Reductase [4])?
Its value is “No Inhibition”.

What about the “11β-HSD2 Dehydrogenase” value (11β-HSD2 Dehydrogenase) of the same molecule?
The value was “Potent Inhibitor (Non-Selective)”.

Source: US20070093460A1, “Methods of using selective 11beta-HSD inhibitors to treat gluocorticoid associated states” (priority 2005, published 2007)
